Experimental data published in US11702409B2, “Pyrazolyl derivatives useful as anti-cancer agents” (NOVARTIS AG, priority 2019, dated 2023).

Molecular target: KRasG12C (M1-K169, biotinylated on the N-terminus) (Homo sapiens (Human), UniProt P01116, G12C)
Assay: Covalent competition assay (scintillation proximity assay, competition with radiolabeled covalent probe Compound B)
Assay type: binding
Conditions: in vitro KRASG12C activity; 10 nM KRasG12C:GDP, 25 nM radio-ligand and 475 nM unlabelled ligand, incubated 2 hours; read-out: Covalent Competition Assay IC50
Method: The cells were lysed by 4 passages through an Avestin Emulsiflex at about 20000 psi and insoluble debris removed by centrifugation and filtered through a 0.45 μm Durapore membrane (Millipore). […] The protein in the flow through was subjected to a final polishing step on a HiLoad 16/60 Superdex 200 prep grade size-exclusion column pre-equilibrated with SEC-buffer (20 mM HEPES pH 7.4, 150 mM NaCl, 5 mM MgCl2, 1 μM GDP).
A scintillation proximity assay (SPA) was used to determine the potency of the compounds. This assay measures the ability of the test compound to compete with the radiolabeled covalent probe for binding to and covalently modify KRASG12C.
A serial dilution of the compounds to be tested is mixed with a fixed concentration of the radiolabeled covalent probe before incubation with KRASG12C:GDP as described below.
The reaction was started by addition of KRasG12C (M1-K169, biotinylated on the N-terminus) to the compounds and incubated for 2 hours with continuous agitation allowing for full modification of KRasG12C with probe or test compounds. […] The assay buffer contained 20 mM Tris-HCl pH 7.5 (Invitrogen), 150 mM NaCl (Sigma Aldrich), 0.1 mM MgCl2 (Sigma Aldrich), and 0.01% Tween-20 (Sigma Aldrich).
Evaluation was carried out using assay data analysis software (such as the standard Novartis in-house Helios software application, Novartis Institutes for BioMedical Research, unpublished) using the methods described in Formenko et al., Robust Regression for high-throughput screening.
Evaluation can also be carried out using commercially available software which is designed to derive IC50 values using 4-parameter fits (e.g. GraphPad Prism, XL fit).

IC50	SMILES
19300 nM	C=CC(=O)N1CC2(CC(n3nc(-c4ccc(C(=O)NCCOC)cc4)c(-c4c(Cl)c(C)cc5[nH]ncc45)c3C)C2)C1 (single isomer, unassigned) [Example 62b, 4-(1-(2-acryloyl-2-azaspiro[3.3]heptan-6-yl)-4-(5-chloro-6-methyl-1H-indazol-4-yl)-5-methyl-1H-pyrazol-3-yl)-N-(2-methoxyethyl)benzamide]
3200 nM	C=CC(=O)N1CC2(CC(n3nc(-c4ccc(O)cc4)c(-c4c(Cl)c(C)cc5[nH]ncc45)c3C)C2)C1 (single isomer, unassigned) [Example 57b]
> 50000 nM	C=CC(=O)N1CC2(CC(n3nc(-c4cncnc4)c(-c4c(Cl)c(Cl)cc5[nH]ncc45)c3C(F)F)C2)C1 (single isomer, unassigned) [Example 86b]
1280 nM	C=CC(=O)N1CC2(CC(n3nc(-c4ccnc(C)c4)c(-c4c(Cl)ccc5[nH]ncc45)c3C)C2)C1 (single isomer, unassigned) [Example 28a]
1300 nM	C=CC(=O)N1CC2(CC(n3nc(-c4ccc5nn(CCN6CC[C@H](F)C6)cc5c4)c(-c4c(Cl)c(C)cc5[nH]ncc45)c3C)C2)C1 (single isomer, unassigned) [Example 80a]
216 nM	C=CC(=O)N1CC2(CC(n3nc(-c4ccc(OC)nc4)c(-c4c(Cl)c(C)cc5[nH]ncc45)c3C)C2)C1 [Example 78a, 1-(6-(4-(5-chloro-6-methyl-1H-indazol-4-yl)-3-(6-methoxypyridin-3-yl)-5-methyl-1H-pyrazol-1-yl)-2-azaspiro[3.3]heptan-2-yl)prop-2-en-1-one]
827 nM	C=CC(=O)N1CC2(CC(n3nc(-c4cnn5c4CCC5)c(-c4c(Cl)c(C)cc5[nH]ncc45)c3C)C2)C1 (single isomer, unassigned) [Example 34a]
173 nM	C=CC(=O)N1CC2(CC(n3nc(-c4cc5ccncc5[nH]4)c(-c4c(Cl)c(C)cc5[nH]ncc45)c3C)C2)C1 (single isomer, unassigned) [Example 59a, 1-(6-(4-(5-chloro-6-methyl-1H-indazol-4-yl)-5-methyl-3-(1H-pyrrolo[2,3-c]pyridin-2-yl)-1H-pyrazol-1-yl)-2-azaspiro[3.3]heptan-2-yl)prop-2-en-1-one]
> 50000 nM	C=CC(=O)N1CC2(CC(n3nc(-c4ccccn4)c(-c4c(Cl)c(C)cc5[nH]ncc45)c3C)C2)C1 (single isomer, unassigned) [Example 46b, 1-(6-(4-(5-chloro-6-methyl-1H-indazol-4-yl)-5-methyl-3-(pyridin-2-yl)-1H-pyrazol-1-yl)-2-azaspiro[3.3]heptan-2-yl)prop-2-en-1-one]
4300 nM	C=CC(=O)N1CC2(CC(n3nc(-c4ccc(C(=O)N(C)CCOC)cc4)c(-c4c(Cl)c(C)cc5[nH]ncc45)c3C)C2)C1 (single isomer, unassigned) [Example 66b, 4-(1-(2-acryloyl-2-azaspiro[3.3]heptan-6-yl)-4-(5-chloro-6-methyl-1H-indazol-4-yl)-5-methyl-1H-pyrazol-3-yl)-N-(2-methoxyethyl)-N-methylbenzamide]
1550 nM	C=CC(=O)N1CC2(CC(n3nc(-c4c(C)cncc4C)c(-c4c(Cl)c(C)cc5[nH]ncc45)c3C)C2)C1 (single isomer, unassigned) [Example 74a]
33 nM	C=CC(=O)N1CC2(CC(n3nc(-c4ccc(O)cc4)c(-c4c(Cl)c(C)cc5[nH]ncc45)c3C)C2)C1 (single isomer, unassigned) [Example 57a]
251 nM	C=CC(=O)N1CC2(CC(n3nc(-c4cccnc4)c(-c4c(Cl)c(C)cc5[nH]ncc45)c3C)C2)C1 (single isomer, unassigned) [Example 27a]
88 nM	C=CC(=O)N1CC2(CC(n3nc(-c4ccc(C(=O)NCCOC)c(F)c4)c(-c4c(Cl)c(C)cc5[nH]ncc45)c3C)C2)C1 (single isomer, unassigned) [Example 63a]
